From US9127079B2, “Inhibitors of phosphatase and tensin homolog (PTEN) conjugates” (THE UNIVERSITY OF BRITISH COLUMBIA, priority 2009, dated 2015)

What was measured:
Assay type in all cases: cell-based, rat
[1] = system: cultured hippocampal neurons; assay: Neuronal death by nuclei staining (Hoechst 33342), NMDA excitotoxicity; details: NMDA 20 uM, 1 hour
Protocol: (§1) Dissociated cultures of rat cortical or hippocampal neurons were prepared from 18-d-old Sprague Dawley rat embryos as described previously (Mielke and Wang 2005). To obtain mixed cultures enriched with neurons, uridine (10 μM) and 5-Fluor-T-deoxyuridine (10 μM) were added to the culture medium at 3 d in vitro (DIV) and maintained for 48 h to inhibit non-neuronal cell proliferation before the cultures were returned to the normal culture medium. Mature neurons (12-14 DIV) were used for experiments. […]
(§2) Necrotic neuronal death was quantified by measuring lactate dehydrogenase (LDH) release 20 h after treatments using a Cyto Tox™ 96 assay kit (Promega™, Madison, Wis.). Absorbance readings were measured using a spectrophotometric microplate reader. Apoptotic neuronal death was determined by visualizing the nucleus condensation and fragmentation of neurons stained with Hoechst-33342™. Images were taken with a Leica DMIRE2™ fluorescence microscope. […] These observations were quantified by double-blind counting of apoptotic and total neurons in each visual field and expressed as percentage apoptosis. […] Data are expressed as the difference in apoptosis relative to control and are expressed as a percentage.

[2] = system: cultured hippocampal neurons; assay: Neuronal death by LDH assay, NMDA excitotoxicity; details: NMDA 20 uM, 1 hour
Protocol: as §1, §2

nuclear PIP3 = assay: Level of nuclear PIP3 after NMDA treatment
Protocol: (§3) Dissociated cultures of rat cortical or hippocampal neurons were prepared from 18-d-old Sprague Dawley rat embryos as described previously (Mielke and Wang 2005). To obtain mixed cultures enriched with neurons, uridine (10 μM) and 5-Fluor-T-deoxyuridine (10 μM) were added to the culture medium at 3 d in vitro (DIV) and maintained for 48 h to inhibit non-neuronal cell proliferation before the cultures were returned to the normal culture medium. Mature neurons (12-14 DIV) were used for experiments.
(§4) In order to induce excitotoxicity, 12-14 DIV cultured neurons were washed and transferred to Mg2+-free extracellular solution (ECS) containing the following (in mM): 25 HEPES acid, 140 NaCl, 33 glucose, 5.4 KCl, and 1.3 CaCl2, with pH 7.35 and osmolarity 320-330 mOsm. ECS and subjected to NMDA-induced excitotoxicity (20 μM NMDA, 10 μM glycine, 60 min at room temperature) or any other experimental conditions as indicated in the texts. Cells were then washed twice with normal ECS, and returned to the original growth conditions until additional assay.
Nuclear extracts were isolated from control and NMDA-treated cell cultures (10^8 cells) using the Panomics™ nuclear extraction kit (Panomics™; catalog number AY2002) as recommended by the manufacturer.

PTEN [3] = assay: Immunostaining of endogenous PTEN: nuclear translocation in cultured neurons with NMDA; details: peptide 10 uM, NMDA stimulation
Protocol: as §3, §4

PTEN [4] = assay: Western blotting of nuclear fractions from cultured neurons: PTEN nuclear translocation; details: NMDA stimulation
Protocol: as §3
In order to induce excitotoxicity, 12-14 DIV cultured neurons were washed and transferred to Mg2+-free extracellular solution (ECS) containing the following (in mM): 25 HEPES acid, 140 NaCl, 33 glucose, 5.4 KCl, and 1.3 CaCl2, with pH 7.35 and osmolarity 320-330 mOsm. […]
For western blotting, 10 μg of the nuclear extract or 40 μg of total cell lysate (solubilized by 1% SDS, 1 mM EGTA, 1 mM EDTA, 1 mM DTT, 2 mM sodium orthovanadate, and protease inhibitors cocktail in PBS) from each treatment condition was separated with SDS-PAGE, transferred onto a polyvinylidene difluoride (PVDF) membrane, and probed with the relevant antibodies. […] Band intensities were quantified using NIH ImageJ™ software and normalized to the quantity of a nuclear marker or β-tubulin in each sample lane.

Compound	cell death, nuclei staining [1]	cell death, LDH assay [2]	level of nuclear PIP3 (nuclear PIP3)	PTEN nuclear translocation (endogenous PTEN immunostaining) (PTEN [3])	PTEN nuclear translocation (western blotting of nuclear fractions) (PTEN [4])
CN[C@H](CC(=O)O)C(=O)O [NMDA, N-methyl-D-asparate]	significant cell death	significant cell death	reduced the level of nuclear PIP3	–	–
YGRKKRRQRRR-PEETSEKVENGS (YGRKKRRQRRRPEETSEKVENGS; PTEN K289 interference peptide conjugated to TAT protein transduction domain) [Peptide-K289, TAT protein transduction domain fused to PTEN K289 interference peptide; control for Peptide-K13]	–	–	–	failed to do so	failed to do so
